Experiments:
Test in all cases: viability relative to DMSO control (fraction); higher = less drug effect (more viable cells)
Conditions in all cases: 48 h
[1] = system: primary MCL patient cells (S063)
Outline: (§1)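 Using 384-well plates with compounds already plated at five concentrations, one well per concentration, 4 × 10^4 primary mononuclear tumour cells were added per well. Cells were Ficoll-isolated from blood or bone marrow or came from processed lymph node, fresh or cryopreserved. They were kept for 48 h at 37 °C and 5% CO2 in RPMI-1640 supplemented with penicillin/streptomycin, L-glutamine and human serum, and viability was read as CellTiter-Glo luminescence relative to the median of 16 inner DMSO wells.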

[2] = system: primary MCL patient cells (S068)
Outline: as §1

[3] = system: primary AML patient cells (S072)
Outline: as §1

[4] = system: primary MCL patient cells (S053)
Outline: as §1

[5] = system: primary ALL patient cells (S048)
Outline: as §1

[6] = system: primary AML patient cells (S025)
Outline: as §1

[7] = system: primary CLL patient cells (S043)
Outline: as §1

[8] = system: primary FL patient cells (S022)
Outline: as §1

[9] = system: primary AML patient cells (S021)
Outline: as §1

[10] = system: primary AML patient cells (S006)
Outline: as §1

[11] = system: primary AML patient cells (S079)
Outline: as §1

[12] = system: primary AML patient cells (S002)
Outline: as §1

[13] = system: primary AML patient cells (S012)
Outline: as §1

[14] = system: primary AML patient cells (S081)
Outline: as §1

[15] = system: primary T-PLL patient cells (S008)
Outline: as §1

[16] = system: primary BL patient cells (S005)
Outline: as §1

[17] = system: primary AML patient cells (S017)
Outline: as §1

[18] = system: primary AML patient cells (S055)
Outline: as §1

[19] = system: primary AML patient cells (S056)
Outline: as §1

[20] = system: primary AML patient cells (S009)
Outline: as §1

O=C(c1cc(Cc2n[nH]c(=O)c3ccccc23)ccc1F)N1CCN(C(=O)C2CC2)CC1 [Olaparib]
viability ([1]; 0.024 µM): 0.872 | viability ([1]; 0.12 µM): 0.936 | viability ([1]; 0.6 µM): 0.893 | viability ([1]; 3 µM): 0.933 | viability ([1]; 15 µM): 0.886 | viability ([2]; 0.024 µM): 0.896 | viability ([2]; 0.12 µM): 0.838 | viability ([2]; 0.6 µM): 0.714 | viability ([2]; 3 µM): 0.78 | viability ([2]; 15 µM): 0.585 | viability ([3]; 0.024 µM): 0.829 | viability ([3]; 0.12 µM): 0.891 | viability ([3]; 0.6 µM): 0.914 | viability ([3]; 3 µM): 0.885 | viability ([3]; 15 µM): 0.852 | viability ([4]; 0.024 µM): 0.801 | viability ([4]; 0.12 µM): 0.863 | viability ([4]; 0.6 µM): 0.834 | viability ([4]; 3 µM): 0.685 | viability ([4]; 15 µM): 0.643 | viability ([5]; 0.024 µM): 0.685 | viability ([5]; 0.12 µM): 0.799 | viability ([5]; 0.6 µM): 0.786 | viability ([5]; 3 µM): 0.771 | viability ([5]; 15 µM): 0.7 | viability ([6]; 0.024 µM): 0.995 | viability ([6]; 0.12 µM): 0.973 | viability ([6]; 0.6 µM): 0.95 | viability ([6]; 3 µM): 1.01 | viability ([6]; 15 µM): 0.861 | viability ([7]; 0.024 µM): 0.797 | viability ([7]; 0.12 µM): 0.814 | viability ([7]; 0.6 µM): 0.835 | viability ([7]; 3 µM): 0.867 | viability ([7]; 15 µM): 0.825 | viability ([8]; 0.024 µM): 0.828 | viability ([8]; 0.12 µM): 1.07 | viability ([8]; 0.6 µM): 0.937 | viability ([8]; 3 µM): 0.866 | viability ([8]; 15 µM): 0.875 | viability ([9]; 0.024 µM): 0.878 | viability ([9]; 0.12 µM): 0.846 | viability ([9]; 0.6 µM): 0.895 | viability ([9]; 3 µM): 0.938 | viability ([9]; 15 µM): 0.797 | viability ([10]; 0.024 µM): 0.94 | viability ([10]; 0.12 µM): 0.986 | viability ([10]; 0.6 µM): 1.01 | viability ([10]; 3 µM): 0.884 | viability ([10]; 15 µM): 0.722 | viability ([11]; 0.024 µM): 0.828 | viability ([11]; 0.12 µM): 0.844 | viability ([11]; 0.6 µM): 0.898 | viability ([11]; 3 µM): 0.893 | viability ([11]; 15 µM): 0.815 | viability ([12]; 0.024 µM): 0.804 | viability ([12]; 0.12 µM): 1.05 | viability ([12]; 0.6 µM): 0.935 | viability ([12]; 3 µM): 0.804 | viability ([12]; 15 µM): 0.748 | viability ([13]; 0.024 µM): 0.928 | viability ([13]; 0.12 µM): 0.976 | viability ([13]; 0.6 µM): 0.955 | viability ([13]; 3 µM): 0.925 | viability ([13]; 15 µM): 0.876 | viability ([14]; 0.024 µM): 0.818 | viability ([14]; 0.12 µM): 0.858 | viability ([14]; 0.6 µM): 0.889 | viability ([14]; 3 µM): 0.884 | viability ([14]; 15 µM): 0.894 | viability ([15]; 0.024 µM): 0.945 | viability ([15]; 0.12 µM): 0.962 | viability ([15]; 0.6 µM): 0.957 | viability ([15]; 3 µM): 0.978 | viability ([15]; 15 µM): 0.94 | viability ([16]; 0.024 µM): 0.938 | viability ([16]; 0.12 µM): 0.985 | viability ([16]; 0.6 µM): 0.977 | viability ([16]; 3 µM): 0.904 | viability ([16]; 15 µM): 0.878 | viability ([17]; 0.024 µM): 0.796 | viability ([17]; 0.12 µM): 0.917 | viability ([17]; 0.6 µM): 0.931 | viability ([17]; 3 µM): 0.94 | viability ([17]; 15 µM): 0.914 | viability ([18]; 0.024 µM): 0.937 | viability ([18]; 0.12 µM): 0.899 | viability ([18]; 0.6 µM): 0.91 | viability ([18]; 3 µM): 0.965 | viability ([18]; 15 µM): 0.919 | viability ([19]; 0.024 µM): 1.05 | viability ([19]; 0.12 µM): 0.922 | viability ([19]; 0.6 µM): 1.05 | viability ([19]; 3 µM): 1.15 | viability ([19]; 15 µM): 1.17 | viability ([20]; 0.024 µM): 0.977 | viability ([20]; 0.12 µM): 0.987 | viability ([20]; 0.6 µM): 1.02 | viability ([20]; 3 µM): 0.93 | viability ([20]; 15 µM): 0.958

O=C(Nc1cccc(C(F)(F)F)c1)Nc1cc(S(=O)(=O)NC2CC2)ccc1-c1ccsc1 [AGI-6780]
viability ([1]; 0.024 µM): 0.935 | viability ([1]; 0.12 µM): 0.969 | viability ([1]; 0.6 µM): 0.96 | viability ([1]; 3 µM): 0.843 | viability ([1]; 15 µM): 0.982 | viability ([2]; 0.024 µM): 0.751 | viability ([2]; 0.12 µM): 0.809 | viability ([2]; 0.6 µM): 0.786 | viability ([2]; 3 µM): 0.722 | viability ([2]; 15 µM): 0.798 | viability ([3]; 0.024 µM): 0.98 | viability ([3]; 0.12 µM): 0.904 | viability ([3]; 0.6 µM): 0.884 | viability ([3]; 3 µM): 0.764 | viability ([3]; 15 µM): 0.769 | viability ([4]; 0.024 µM): 0.741 | viability ([4]; 0.12 µM): 0.807 | viability ([4]; 0.6 µM): 0.851 | viability ([4]; 3 µM): 0.788 | viability ([4]; 15 µM): 0.88 | viability ([5]; 0.024 µM): 0.7 | viability ([5]; 0.12 µM): 0.636 | viability ([5]; 0.6 µM): 0.599 | viability ([5]; 3 µM): 0.622 | viability ([5]; 15 µM): 0.61 | viability ([6]; 0.024 µM): 0.949 | viability ([6]; 0.12 µM): 1.06 | viability ([6]; 0.6 µM): 0.978 | viability ([6]; 3 µM): 0.905 | viability ([6]; 15 µM): 0.839 | viability ([7]; 0.024 µM): 0.927 | viability ([7]; 0.12 µM): 1.05 | viability ([7]; 0.6 µM): 0.988 | viability ([7]; 3 µM): 0.905 | viability ([7]; 15 µM): 0.935 | viability ([8]; 0.024 µM): 0.826 | viability ([8]; 0.12 µM): 0.782 | viability ([8]; 0.6 µM): 0.821 | viability ([8]; 3 µM): 0.835 | viability ([8]; 15 µM): 0.775 | viability ([9]; 0.024 µM): 0.881 | viability ([9]; 0.12 µM): 0.894 | viability ([9]; 0.6 µM): 0.878 | viability ([9]; 3 µM): 0.891 | viability ([9]; 15 µM): 0.676 | viability ([10]; 0.024 µM): 0.94 | viability ([10]; 0.12 µM): 1.01 | viability ([10]; 0.6 µM): 1.02 | viability ([10]; 3 µM): 0.974 | viability ([10]; 15 µM): 0.993 | viability ([11]; 0.024 µM): 0.935 | viability ([11]; 0.12 µM): 0.943 | viability ([11]; 0.6 µM): 0.925 | viability ([11]; 3 µM): 0.887 | viability ([11]; 15 µM): 0.802 | viability ([12]; 0.024 µM): 0.785 | viability ([12]; 0.12 µM): 0.822 | viability ([12]; 0.6 µM): 0.816 | viability ([12]; 3 µM): 0.798 | viability ([12]; 15 µM): 0.689 | viability ([13]; 0.024 µM): 1.03 | viability ([13]; 0.12 µM): 1.01 | viability ([13]; 0.6 µM): 1 | viability ([13]; 3 µM): 0.941 | viability ([13]; 15 µM): 0.868 | viability ([14]; 0.024 µM): 0.829 | viability ([14]; 0.12 µM): 0.956 | viability ([14]; 0.6 µM): 0.878 | viability ([14]; 3 µM): 0.756 | viability ([14]; 15 µM): 0.841 | viability ([15]; 0.024 µM): 0.865 | viability ([15]; 0.12 µM): 0.979 | viability ([15]; 0.6 µM): 0.937 | viability ([15]; 3 µM): 0.863 | viability ([15]; 15 µM): 0.825 | viability ([16]; 0.024 µM): 0.818 | viability ([16]; 0.12 µM): 0.915 | viability ([16]; 0.6 µM): 0.932 | viability ([16]; 3 µM): 0.778 | viability ([16]; 15 µM): 0.886 | viability ([17]; 0.024 µM): 0.881 | viability ([17]; 0.12 µM): 0.938 | viability ([17]; 0.6 µM): 0.919 | viability ([17]; 3 µM): 0.908 | viability ([17]; 15 µM): 0.982 | viability ([18]; 0.024 µM): 0.912 | viability ([18]; 0.12 µM): 0.919 | viability ([18]; 0.6 µM): 0.874 | viability ([18]; 3 µM): 0.859 | viability ([18]; 15 µM): 0.85 | viability ([19]; 0.024 µM): 1.03 | viability ([19]; 0.12 µM): 0.821 | viability ([19]; 0.6 µM): 0.834 | viability ([19]; 3 µM): 0.783 | viability ([19]; 15 µM): 0.7 | viability ([20]; 0.024 µM): 0.807 | viability ([20]; 0.12 µM): 0.796 | viability ([20]; 0.6 µM): 0.875 | viability ([20]; 3 µM): 0.834 | viability ([20]; 15 µM): 0.749

From the supplement of paper PMC10733146
